Measurements published in patent publication US11931347B2, “Method of screening for agents for differentiating stem cells” (MINERVA BIOTECHNOLOGIES CORPORATION, priority 2015, dated 2024).

What was measured:
[1] = system: human naïve state stem cells; assay: stem cell drug screening assay on naïve state stem cells; format: cell-based; details: 6 uM, 3 days
Description: (§1) The stem cell screening assay, was performed in both the presence and absence of the stem cell growth factors: NME7AB for growing naïve stem cells or FGF for growing primed stem cells. If the cognate growth factor was present, then the biological or small molecule would have to compete away the growth factor to get an effect. Therefore, we expected to see more of an effect when the growth factor, FGF for primed stem cells or NME7AB or NME1 dimers for naïve stem cells, was absent. The effect of the compounds on stem cells was visually determined and compounds were ranked 0-4, with 4 being the greatest effect and 0 being no observable effect. The major effect that was observed was a change from pluripotent stem cell morphology, which is a cobblestone pattern of small round cells with a large nucleus to cytoplasm ratio, to that of differentiating stem cells, which are elongated, large and flattened cells with a smaller nucleus to cytoplasm ratio. […] The compounds were added to a final concentration of 6 uM to either naïve state stem cells or primed state stem cells. In this particular case, the naïve state stem cells were maintained in a naïve state by culturing in a media containing NME7AB or NME1 dimers. However, other methods such as 2i and 5i (Silva et al., 2008, Nichols and Smith, 2009, Theunissen et al., 2014)] can be used to maintain stem cells in a more naïve state. In this case primed state stem cells were cultured in bFGF over a layer of MEFs, although it is known that any bFGF containing media will maintain stem cells in the primed state.
Stem cells whether embryonic or induced pluripotent stem (iPS) cells were cultured in a minimal, serum-free media that contained human recombinant NME7AB at a concentration of 2-32 nM wherein 4-8 nM is preferred and 4 nM is more preferred. To facilitate surface attachment, cell culture plates were coated with an anti-MUC1* monoclonal antibody called MN-C3 or C3 or MN-C8 at a concentration of 2-100 ug/mL coating solution, wherein 3-50 ug/mL is preferred and 6-12.5 ug/mL is more preferred. In these experiments, 12.5 ug/mL of MN-C3 was used. Antibody coated plates were incubated at 4 degrees C. overnight prior to plating stem cells. A Rho kinase I inhibitor was added to enhance surface attachment. In some cases, NME7AB was substituted with human recombinant NME1 dimers which also induce stem cells to revert to a naïve-like state.
(§2) Human naïve state and primed stem cells were cultured in parallel for at least 5 passages to guarantee normal differentiation-free growth. The stem cells were plated in 12-well cell culture plates with 50,000 cells per well. Cells were cultured in their respective media, either bFGF media or NME7AB media for 24 hours. Media was then removed and replaced with media devoid of bFGF or NME7AB, when indicated. Agents being tested for their ability to induce differentiation of naïve stem cells were added to the media at the concentrations indicated. After 72 hours, photographs were taken see FIGS. 1-10.
(§3) Human naïve state and primed stem cells were cultured in parallel for at least 5 passages to guarantee normal differentiation-free growth. The stem cells were plated in 12-well cell culture plates with 50,000 cells per well. Cells were cultured in their respective media, either bFGF media or NME7AB media for 24 hours. Media was then removed and replaced with media devoid of bFGF or NME7AB. […] Media was changed after 48 hours and replaced with fresh media containing the BRD4 inhibitors. After 4 days the experiment was stopped. Photographs were taken and cell pellets collected for further analysis, see FIGS. 11-16.

[2] = system: human primed state stem cells; assay: stem cell drug screening assay on primed state stem cells; format: cell-based; details: 6 uM, 3 days
Description: as §1
Stem cells whether embryonic or induced pluripotent stem (iPS) cells were cultured in a minimal, serum-free media that contained human recombinant bFGF at a concentration of 8 ng/mL. The stem cells were plated over a layer of inactivated mouse embryonic fibroblasts, aka MEFs, which secrete additional uncharacterized growth factors and cytokines.
as §2, §3

T47D breast cancer cells [3] = assay: cancer cell proliferation assay (Calcein live cell stain); format: cell-based, human; details: for inhibition of growth of T47D cells: live cell Calcein stain, 96 hours (FIG. 113)
Description: These analogs of MN1194 and 1186 were also tested in a cell growth assay (FIGS. 107A1-107H6 and FIG. 108A1-108H6, respectively). In this experiment, both parent compound and analogs thereof were added to normal cell culture media to final concentrations of 40 uM, 20 uM, 10 uM, 5 uM or 2.5 uM. For comparison, previously known cancer cell migration inhibitors SU11274 and MN1204 were included in the same experiment. […] Relative cell proliferation is quantified on a standard plate reader that reads the fluorescence of the Calcein that is taken up by live cells.
Small molecule inhibition of cancer cell proliferation studies were also performed on several cancer sub-types. […] The small molecules of the invention had the most robust effect on T47D breast cancer cells, which are highly positive for MUC1* growth factor receptor, and its activating ligands NME7AB and NME7-X1.
(§4) For the cancer cell proliferation experiment cancer cells were plated at constant densities (6000 cells/well) into a 96-well White-walled/Clear-bottom Tissue Culture Treated plate (Corning Incorporated, Big Flats, N.Y.). Small molecule analogs are added at T=24 hours in media with 2% FBS. Following the addition of the small molecules, the cells remain untouched for 120 hours with visual confirmations/inspections at 24, 48, 72 and 96 hours post plating. At the 120 hour mark a calcein fluorescence assay (Thermo Fisher Scientific, Waltham, Mass.) is performed on the plate. Calcein fluorescence (final concentration 0.5 uM) is used to assess cell viability. Cancer cell fluorescence is measured in a TECAN SAFIRE^2 spectrophotometer plate reader. The plate is then imaged using an Olympus IX71 fluorescence imaging microscope and montage of the resulting images are assembled using ImageJ.

[4] = system: DU145 MUC1* positive prostate cancer cells; assay: cancer cell proliferation assay (Calcein); format: cell-based; details: 96 hours (FIG. 109)
Description: as §4, with “Small molecule inhibition of cancer cell proliferation studies were also performed on several cancer sub-types. […] The small molecules of the invention had the most robust effect on T47D breast cancer cells, which are highly positive for MUC1* growth factor receptor, and its activating ligands NME7AB and NME7-X1. […] For” for “For”

[5] = system: MDA-MB-453 breast cancer cells; assay: cancer cell proliferation assay (Calcein); format: cell-based; details: 96 hours (FIG. 110)
Description: as §4, with “Small molecule inhibition of cancer cell proliferation studies were also performed on several cancer sub-types. […] The small molecules of the invention had the most robust effect on T47D breast cancer cells, which are highly positive for MUC1* growth factor receptor, and its activating ligands NME7AB and NME7-X1. […] For” for “For”

[6] = system: PC-3 MUC1* negative, NME7AB positive prostate cancer cells; assay: cancer cell proliferation assay (Calcein); format: cell-based; details: 96 hours (FIG. 111)
Description: as §4, with “Small molecule inhibition of cancer cell proliferation studies were also performed on several cancer sub-types. […] The small molecules of the invention had the most robust effect on T47D breast cancer cells, which are highly positive for MUC1* growth factor receptor, and its activating ligands NME7AB and NME7-X1. […] For” for “For”

T47D breast cancer cells [7] = assay: cancer cell migration, invasion assay (Platypus/Oris system); format: cell-based, human; details: T47D, 120 hours
Description: We then tested an expanded panel of agents, including agents known to inhibit cancer growth or migration (FIG. 17) (Horm et al., 2012; Meng & Yue, 2014; Zhen et al., 2014), which is characteristic of aggressive or metastatic cancers. We also synthesized a series of novel small molecules, tested them in the stem cell drug screening assay, and then synthesized analogs of the best hits. These small molecules are pictured in FIGS. 18-27. Both the known compounds and the novel compounds were tested in the stem cell drug screening assay. The effects of the small molecules on naïve versus primed state stem cells are shown in the photographs of FIGS. 29-72. The small molecules pictured in FIGS. 17-27 and the biologicals were also tested in a cancer cell migration assay. A structure activity relationship table is seen in FIG. 28. Potent cancer cell migration is characteristic of cancer cell invasion of other tissues and of metastasis. Typical migration assays involve coating a cell culture plate with fibronectin, collagen or the like, plating cancer cells and making a scar across through the cells and measuring the time it takes for the cancer cells to invade the void space. An alternative approach that gives more reliable data is the Platypus System which is a special multi-well cell culture plate with a juxtaposed set of plugs that block off a circle in the center of each well. Cancer cells are plated while the plugs are in place, then they are removed after the cells attach to the plate surface. […] A bar graph summarizing the results of the known anti-migration compounds compared to the anti-MUC1* Fab E6 and the first few small molecules synthesized is shown in FIG. 73. The effect of two novel small molecules MN1186 and MN1194, compared to the known anti-migration molecule SU11274, is shown in FIG. 75A-75U. FIG. 75V is a graph showing the measured inhibition of cancer cell migration at time 0, 24 hours or 48 hours for a number of compounds. […] FIG. 75X is a graph showing how IC50's of the small molecules of the invention were measured and calculated.
Percent inhibition of cancer cell migration was performed in a wound healing assay. The Percent area that the invading cancer cells occupied, in the presence of a drug candidate compared to the controls, was quantified by Image J cell software which enables cell counting from photographs. IC50's were calculated by performing migration experiments at several compound concentrations and then applying Hill's equation. Inhibition of cancer cell proliferation was quantified by automated cell counting in the presence or absence of a drug candidate. Here, the potency of the drug candidate was simply scored 4 for the highest degree of inhibition and 0 for the lowest. […] The effect of each drug candidate was scored 0-4, with 4 being the highest in inhibiting cell proliferation (FIG. 28).
For the cancer cell migration experiment cancer cells were plated at varying densities into an Oris Cell Migration Assay Collagen-1 coated 96-well plate (Platypus Technologies LLC, Madison, Wis.). The Collagen-1 coated 96-well plate incorporates a specific vacuum plug which attaches to the bottom of each well, creating an area in which the cells cannot grow into. Once the cells have been plated at high densities into each well, they are allotted an 18-24 hour time period to attach to the bottom of the wells. Post-24 hour plugs are removed from the plate and then small molecule analogs are added to the wells. Images are taken of each well and represent time 0 (T=0) for each well. Images are taken of the wells at the 24, 48, 72, 96 and 120 hour time points. Data analysis is conducted using the images taken at these specific time point. Images are imported into ImageJ (Rasband, W. S., ImageJ, U. S. National Institutes of Health, Bethesda, Md., USA, http://imagej.nih.gov/ij/, 1997-2016.) and the area remaining free of cells is calculated. […]

[8] = system: E-cadherin, fibronectin, vimentin and NF1 expression in naïve stem cells; assay: RT-PCR of differentiation markers in treated naïve stem cells; format: cell-based, human
Description: FIG. 161 is a graph of RT-PCR measurement of naïve stem cells that have been treated with compounds of the invention. The genes whose expression is measured are E-cadherin, which goes […] as cells undergo epithelial to mesenchymal transition, fibronectin and vimentin, which both increase as stem cells initiate differentiation and NF1, which is one of the first genes to increase when stem cells begin to differentiate down the neural lineage. […] E-cadherin is the opposite; it […] as cells become cancerous. […] Expression of metastatic marker E-cadherin was reduced and expression of differentiation markers fibronectin, vimentin and NF1 were increased (FIG. 162-FIG. 163). Novel compounds of the invention are highly specific. […] Although we discovered that NME1 dimers, NME7AB and NME7-X1 are all activating ligands of the MUC1* growth factor receptor and they bind to its extracellular domain, we have developed ample evidence that both NME7AB and NME7-X1 have other binding partners and can exert oncogenic effects, independent of MUC1*.

Compound | effect on naïve stem cell pluripotency, growth or differentiation (visually determined) [1] | effect on primed stem cell pluripotency, growth or differentiation (visually determined) [2] | inhibition of growth of T47D cells (T47D breast cancer cells [3]) | inhibition of growth of DU145 cells [4] | inhibition of growth of MDA-MB-453 cells [5] | inhibition of growth of PC-3 cells [6] | inhibition of cancer cell migration (T47D breast cancer cells [7]) | inhibition of cancer cell proliferation relative to parent compounds (T47D breast cancer cells [3]; T47D, Calcein assay after 120 hours, 40-2.5 uM) | up-regulation of markers of differentiation in naïve stem cells (RT-PCR) [8]
CCCCNC(=O)N1CCc2c([nH]c3ccccc23)C1C(C)c1ccccc1 (centres unmarked) [MN1130] | induced differentiation | modest effect | severely inhibited growth | inhibited the growth | inhibited the growth | inhibited the growth | – | – | –
CC(C)CC1c2[nH]c3cc(F)ccc3c2CCN1C(=O)CNC(=O)OC(C)(C)C (centres unmarked) [MN1227] | – | – | severely inhibited growth | inhibited the growth | inhibited the growth | inhibited the growth | improvements over MN1186 | inhibit cancer cell proliferation better than parent compounds | –
CC(C)C1c2[nH]c3ccccc3c2CCN1C(=O)CCCCNC(=O)OC(C)(C)C (centres unmarked) [MN1235] | – | – | – | – | – | – | – | – | failed to induce differentiation
CC(C)CC1c2[nH]c3ccccc3c2CCN1C(=O)C1CCC(CNC(=O)OC(C)(C)C)CC1 (centres unmarked) [MN1246] | – | – | severely inhibited growth | inhibited the growth | inhibited the growth | inhibited the growth | – | – | –
